The values that follow come from patent US10202362B2, “Inhibitors of leukotriene A4 hydrolase” (Celtaxsys, Inc., priority 2016, dated 2019).

Test [1] deals with recombinant human LTA4 hydrolase (Homo sapiens (Human), UniProt P09960). Briefly: LTA4 hydrolase homogeneous time resolved fluorescence (HTRF) assay. The class given is biochemical. Particulars: inhibition of hydrolysis of LTA4 to LTB4. As for the experimental part:
Compounds of the invention were tested in the LTA4 hydrolase homogeneous time resolved fluorescence (HTRF) assay to determine their ability to inhibit the hydrolysis of LTA4 to LTB4. The assay analyzes the amount of LTB4 produced.
LTA4 HTRF assay is a two-step assay involving enzymatic conversion of LTA4 to LTB4, and subsequent quantification of LTB4, product with HTRF assay.
The enzymatic conversion of LTA4 to LTB4 was performed in 384-well plates at ambient temperature in a reaction mixture containing 50 mM HEPES (pH 7.5), 0.5% BSA (fatty acid free), 18 nM recombinant human LTA4 hydrolase, 150 nM LTA4, 1% DMSO in the absence or presence of a compound of the invention. […]
LTB4 formed was quantified with the HTRF assay in which free LTB4 competes with LTB4-XL665 conjugate (acceptor) for anti-LTB4 monoclonal antibody labeled with Europium cryptate (donor), thereby inhibiting the fluorescence energy transfer.
The LTB4 HTRF 384-well assay was carried out by incubating LTB4 samples or standards with LTB4-XL665 conjugate (7.5 ng/well) and anti-LTB4 monoclonal antibody-Europium cryptate conjugate (0.5 ng/well) in 50 mM phosphate, 0.4 M KF and 0.1% casein, buffer (pH 7.0) for two hours at ambient temperature. Plates were read in a RubyStar plate reader (BmG Labtechnologies Inc., NC) simultaneously at 620 nm and 665 nm to obtain signal ratios of 665 nm/620 nm. […]
A general note: In TR-FRET formats the signal depends on donor and acceptor labels being close together.

Test [2] addresses LTA4 hydrolase peptidase activity (Homo sapiens (Human), UniProt P09960). Briefly: Peptidase assay (hydrolysis of L-alanine-p-nitroanilide). The settings on record: L-alanine-p-nitroanilide substrate. The class given is biochemical. As for the experimental part: Inhibition of peptidase activity was measured for the compounds of the invention by using methods similar to those described in Kull, F. et al., The Journal of Biological Chemistry 1999, 274 (49): 34683-34690.
In brief, the enzyme (29 nM) was incubated with L-alanine-p-nitroanilide (1 mM) in 50 mM HEPES (pH 7.5), 100 mM KCL, 1% DMSO in the absence or presence of a compound of the invention for 1 hour at ambient temperature. Reaction was terminated by addition of acetic acid (1%). Formation of colored nitro-aniline was measured by the increase in absorbance at 405 nm in a Victor 2 plate reader (Wallac). Spontaneous hydrolysis of the substrate was corrected for by subtracting the absorbance of control incubations without enzyme.

In test [3] the test system is LTB4 production in human whole blood. Kind of test: Whole blood assay (LTB4 release upon calcium ionophore, ELISA), human blood. The format is cell-based. The settings on record: production of LTB4 in whole blood. As for the experimental part:
Compounds of the invention were tested for their ability as inhibitors of LTA4 hydrolase in a whole blood assay using human, mouse, rat or dog whole blood in a manner similar to that described in Penning, T. D. et al., J. Med. Chem. (2000), 43(4): 721-735. In this assay, compounds were tested for their ability to inhibit LTB4 release upon stimulation with calcium ionophore. The LTB4 levels in supernatants were measured by ELISA.

Chain of LTA4 hydrolase peptidase activity (P09960 whole entry): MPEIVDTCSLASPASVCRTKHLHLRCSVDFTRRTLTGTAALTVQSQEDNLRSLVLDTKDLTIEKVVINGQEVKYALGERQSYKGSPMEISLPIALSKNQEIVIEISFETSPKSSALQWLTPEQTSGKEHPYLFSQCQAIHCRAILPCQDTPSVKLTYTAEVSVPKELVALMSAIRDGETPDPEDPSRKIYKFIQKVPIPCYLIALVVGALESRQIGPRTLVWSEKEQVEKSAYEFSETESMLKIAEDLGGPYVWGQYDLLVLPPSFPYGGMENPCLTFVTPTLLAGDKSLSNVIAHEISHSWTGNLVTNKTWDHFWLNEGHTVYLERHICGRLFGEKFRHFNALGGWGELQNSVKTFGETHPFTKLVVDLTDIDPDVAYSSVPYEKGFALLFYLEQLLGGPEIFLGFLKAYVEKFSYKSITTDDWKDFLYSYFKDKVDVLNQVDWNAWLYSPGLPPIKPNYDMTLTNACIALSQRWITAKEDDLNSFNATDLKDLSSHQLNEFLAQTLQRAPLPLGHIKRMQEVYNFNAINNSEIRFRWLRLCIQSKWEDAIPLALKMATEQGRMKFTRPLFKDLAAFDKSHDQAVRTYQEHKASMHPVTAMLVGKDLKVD
Chain of recombinant human LTA4 hydrolase (P09960 whole entry): as above

A word on the IC50: it is the concentration that inhibits the measured activity by half. Take `O=C(O)C1CCN(C(=O)CN2CCC(Nc3ccc(Oc4ccc(-c5ncco5)cc4)cc3)CC2)CC1` [Example 1, 1-(2-(4-((4-(4-(oxazol-2-yl)phenoxy)phenyl)amino)piperidin-1-yl)acetyl)piperidine-4-carboxylic acid]: the values for the IC50 in test [1], in test [2] and in test [3] were 2.1 nM, 7.1 nM and 62 nM, respectively.
The like results for `O=C(O)c1ccc(CN2CCCC(CNc3ccc(Oc4ccc(Cl)cc4)cc3)C2)cc1` (stereo not drawn) [Example 3, 4-((3-(((4-(4-chlorophenoxy)phenyl)amino)methyl)piperidin-1-yl)methyl)benzoic acid] were, in that order, 1.8 nM, 22 nM and 100 nM.
